According to US20230149326A1, “PHARMACEUTICAL COMPOSITION FOR PREVENTING OR TREATING MUSCULAR WEAKNESS-RELATED DISEASES COMPRISING ALVERINE, 4-HYDROXY ALVERINE, DERIVATIVE THEREOF, OR PHARMACEUTICALLY ACCEPTABLE SALT THEREOF” (AVENTI INC., priority 2020, published 2023):

Legend:
C2C12 cells [1] = assay: Promotion of differentiation of myoblasts (MyHC fluorescent staining); type: cell-based, mouse
Protocol: C2C12 (American Type Culture Collection, CRL-1772™) cells are a myoblast cell line obtained from C3H mouse and is used in myoblast differentiation research. The C2C12 cells were cultured using growth media, and then cultured using differentiation media for differentiation induction. Here, DMEM supplemented with 10% fetal bovine serum was used as growth media (GM), and DMEM supplemented with 5% horse serum (HS) was used as differentiation media (DM). In order to confirm the effect of alverine citrate on promoting the differentiation of myoblasts, C2C12 cells were dispensed in the GM of Example 1.1 and cultured for 24 hours, and then the C2C12 cells were treated with DMSO, insulin, or alverine citrate, and induced for differentiation over 3 days. […] Here, the DMSO, insulin and alverine citrate used in the experiment were all purchased from Sigma-Aldrich. The group treated with insulin was used as the positive control group. In particular, C2C12 cells were dispensed in a 6-well plate treated with the GM of Example 1.1 at a concentration of 5×10^5 cells per plate and after 24 hours, were replaced with DMEM media supplemented with 5% HS and induced for differentiation. Thereafter, the cells were treated with DMSO, insulin (1.72 μM) or alverine citrate (0.01 μM, 0.1 μM, 1 μM or 10 μM). After 3 days, after removing the media, the cells were washed with phosphate buffer solution (1× PBS) and treated with paraformaldehyde (4%) and fixed at room temperature for 15 minutes. Then, after washing three times with phosphate buffer solution (1× PBS), PBS containing 0.3% triton X-100 was treated with permeabilization buffer and allowed to react at room temperature for 10 minutes. After washing three times with phosphate buffer solution (1× PBS), PBST (blocking buffer, PBS containing 0.5% Tween 20) containing 2% bovine serum albumin was administered and allowed to react for 30 minutes to suppress nonspecific binding of antibodies. After washing with phosphate buffer (1× PBS) three times, 100 μL of primary antibodies (SC-20641, Santa Cruz Biotechnology) to MYH3 diluted to 1:500 were added and allowed to react at room temperature for 1 hour. Thereafter, after washing with phosphate buffer (1× PBS) three times, 100 μL of secondary antibodies (Goat anti-Rabbit IgG-HRP) diluted to 1:5,000 were added and allowed to react at room temperature for 1 hour. After 1 hour, for nuclear staining, after washing with phosphate buffer (1× PBS) three times, the blocking buffer was treated with diluted DAPI dye and allowed to react at room temperature for 10 minutes. Thereafter, after washing with phosphate buffer (1× PBS) three times, the washed cover glass was measured for absorbance at a wavelength of 450 nm and a fluorescent image was taken using a fluorescence microscope. The anti-MyHC antibody stained area was analyzed using imageJ (Java-based image processing program). To confirm the effect of 4-hydroxy alverine on promoting myoblast differentiation, following the same method as Example 1, DMSO, insulin (1.72 μM), alverine citrate (0.01 μM, 0.1 μM, 1 μM or 10 μM), 4-hydroxy alverine (0.01 μM, 0.1 μM, 1 μM or 10 μM) were each administered, and differentiation to myotubes and changes in myotube thickness and diameter were observed.

C2C12 cells [2] = assay: Myotube atrophy induced by C26 cancer cell conditioned medium (cachexia model); type: cell-based, mouse; settings: 1 μM; differentiation media with 33% CM, 3 days
Protocol: In order to confirm a cachexia treatment effect of alverine citrate and 4-hydroxy alverine, an experiment mimicking a tumor-growth environment by treatment of a cancer cell conditioned medium (CM) was conducted as an ex vivo approach. First, cancer cell CM was prepared using a C26 cancer cell line. Here, as cancel cell growth media (GM), RPMI1640 media supplemented with 10% fetal bovine serum was used. The C26 cancer cell line was cultured using a 100 mm cell culture plate and the cancer cell GM. Here, the media were removed when cell confluency reached 90%. Then, after washing with phosphate buffer (1× buffer), the prepared differentiation media were treated following the same process as in Example 1. After 24 hours, a C26 cancer cell line CM was obtained and filtered using bottle top filters (Thermo, PES, 1 L) before use.
C2C12 cells were dispensed in a 6-well plate treated with the GM of Example 1.1 at a concentration of 5×10^5 cells per plate and after 24 hours, were replaced with DMEM media supplemented with 5% HS and induced for differentiation. […] Here, by treating the experimental groups with 1 μM alverine citrate (AC) and 4-hydroxy alverine (4HA), the effect of suppressing myotube atrophy was evaluated. […] Following the same method as in Example 1.2, by florescent staining using antibodies against MyHC, the expression amount of MyHC was measured.

sarcopenia-induced mice = assay: Running ability test, sarcopenia-induced mouse; type: in vivo; settings: hindlimb-immobilized mice; oral 150 mg/kg/day (AC-H); compared with normal mouse
Protocol: Running ability was measured using a treadmill designed specific for this experiment. First, aversive stimuli were provided by letting electric stimuli flow at the starting point. Before the measurement, the mice were acclimatized at 8 m/min for 10 minutes. The running time was recorded by allowing mice in each group to run in separate lanes until exhaustion. Exhaustion was defined such that when the mouse stays outside the lanes for 10 seconds or more without running, the mouse was determined to be exhausted and the time was recorded. It was not possible to repeat this experiment on the same mouse. The mouse was placed on the treadmill and the test was started at 8 rpm, and the speed was accelerated by 2 rpm every 10 minutes to a maximum speed of 20 rpm. The slope of the lane started from a zero-degree incline and then was elevated to a five-degree incline after 30 min from the start. In order to confirm a muscle strength enhancement effect of alverine citrate, sarcopenia-induced mice were administered with alverine citrate and tested for running ability. After the treadmill running test, muscle weight was measured. In particular, the hindlimb of 10 week-old C57BL/6 male mice was immobilized using a surgical stapler (Autosuture Royal 35W stapler). […] After that, running ability was measured. […] Running ability was measured by the same method as in Example 2.2.

C2C12 cells [3] = assay: Effect of alverine derivatives on promoting myoblast differentiation; type: cell-based, mouse; settings: 1 μM, 4 days; compared with DMSO alone
Protocol: C2C12 (American Type Culture Collection, CRL-1772™) cells are a myoblast cell line obtained from C3H mouse and is used in myoblast differentiation research. The C2C12 cells were cultured using growth media, and then cultured using differentiation media for differentiation induction. Here, DMEM supplemented with 10% fetal bovine serum was used as growth media (GM), and DMEM supplemented with 5% horse serum (HS) was used as differentiation media (DM).
In order to confirm the effect of an alverine derivative on promoting the differentiation of myoblasts, C2C12 cells were dispensed in the GM of Example 1.1 and cultured for 24 hours. Then, the C2C12 cells were treated with DMSO (Sigma-Aldrich), insulin, alverine (Sigma-Aldrich), or 27 types of alverine derivatives, each at a concentration of 1 μM and were induced for differentiation over 4 days. […]
After washing three times with phosphate buffer (1× PBS), PBST (blocking buffer, PBS containing 0.5% Tween 20) containing 2% bovine serum albumin was administered and allowed to react for 30 minutes to suppress nonspecific binding of antibodies. […] Thereafter, after washing with phosphate buffer (1× PBS) three times, the washed cover glass was measured for absorbance at a wavelength of 450 nm and a fluorescent image was taken using a fluorescence microscope.

## CCN(CCCc1ccccc1)CCCc1ccc(O)cc1 [4-hydroxy alverine, 4-[3-[ethyl(3-phenylpropyl)amino]propyl]phenol]
C2C12 cells [1]; compared with DMSO or insulin (1.72 μM), 0.01-10 μM
  differentiation of myoblasts to myotubes: more differentiated to myotubes
C2C12 cells [1]; compared with alverine at the same concentration
  differentiation promoting effect: superior differentiation promoting effect than alverine
C2C12 cells [2]
  myotube atrophy: myotube atrophy was suppressed

## CCN(CCCc1ccccc1)CCCc1ccccc1 [Alverine, N-ethyl-3-phenyl-N-(3-phenylpropyl)propan-1-amine]
sarcopenia-induced mice
  running time: increased compared to the normal mouse
C2C12 cells [3]
  differentiation of myoblasts to myotubes: promoted the differentiation to myotubes

## insulin: positive control group, purchased from Sigma-Aldrich
C2C12 cells [1]; compared with DMSO alone, 3 days, insulin 1.72 μM, alverine citrate 0.01-10 μM
  differentiation of myoblasts to myotubes: more differentiated to myotubes
